By EC50 is commonly meant the concentration at which the effect is half-maximal.

The target in this test is eIF3e (Homo sapiens, UniProt P60228). Put plainly: isothermal dose-response fingerprint CETSA, western blot. It counts as biochemical. The settings on record: MCF7-SIX1 lysate, 10 min at room temperature with compound, heated at 53 °C for 3 min; pH 7.5 Tris, 100 mM NaCl, 1 mM DTT. In general terms: A western blot detects proteins with antibodies after separation by electrophoresis.
Sequence of eIF3e (P60228 2-445): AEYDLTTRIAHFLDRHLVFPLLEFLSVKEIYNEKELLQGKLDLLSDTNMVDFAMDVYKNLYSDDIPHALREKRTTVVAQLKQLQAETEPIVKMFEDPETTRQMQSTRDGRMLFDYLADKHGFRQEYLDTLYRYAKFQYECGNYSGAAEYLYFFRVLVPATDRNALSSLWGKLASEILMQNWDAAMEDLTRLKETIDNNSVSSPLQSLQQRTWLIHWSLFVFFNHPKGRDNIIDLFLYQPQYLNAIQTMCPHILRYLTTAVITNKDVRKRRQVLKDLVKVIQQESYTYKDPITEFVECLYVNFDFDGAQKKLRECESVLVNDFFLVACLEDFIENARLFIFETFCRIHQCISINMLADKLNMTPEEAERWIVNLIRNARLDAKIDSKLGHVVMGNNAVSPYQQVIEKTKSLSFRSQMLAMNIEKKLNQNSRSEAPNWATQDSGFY

`COc1ccc(NC(=O)c2cccc(-n3cccc3)c2)cc1S(=O)(=O)N1CCOCC1` [compound 8430, NCGC00378430]: the EC50 is 13.6 µM.

The record behind these values is article PMC12822916 (Cell reports, 2025).
